Laboratory results from US20080234130A1, “Compositions providing tolerance to multiple herbicides and methods of use thereof” (priority 2005, published 2008).

Columns and labels:
[1] = system: GAT-HRA maize; assay: Postemergence herbicide spray at V2, injury evaluated 10-14 days after application
Protocol: GAT-HRA maize plants were evaluated for tolerance to glyphosate and other herbicides. One protocol used in this evaluation was as follows. At the V2 stage (Ritchie and Hanway (1982), “How a corn plant develops” Spec. Rep. 48. (Coop. Ext. Ser., Iowa State Univ., Ames, Iowa)), plant heights were measured and herbicides were applied by spray application. Ten to fourteen days after the spray application, the transgenic plants were evaluated for injury symptoms and measured for plant height again in order to determine plant growth rates.
Plants were then evaluated at various times after treatment, such as 10 or 14 days after treatment. […] Leaf samples were taken from GAT-HRA plants and used in quantitative PCR analysis and other analyses to determine the number and arrangement of copies of the GAT and HRA polynucleotides that had been integrated into the plant genome.
Other protocols for evaluation included treatment with imidazolinone herbicides, such as the commercial herbicide Lightning® (a combination of imazapyr and imazethapyr), which was applied to GAT-HRA maize at the V2 leaf stage at four times the field label rate (250 g ai/ha). […] Another protocol for evaluation included treatment with imidazolinone herbicides as well as sulfonylurea and glyphosate herbicides. In these tests, GAT-HRA maize was treated with various combinations of Lightning® (imazapyr and imazethapyr), Basis® (rimsulfuron and thifensulfuron-methyl) and WeatherMAX® (glyphosate potassium salt). These herbicides were applied at the V2 stage as follows: Lightning® at twice the field label rate (1.8 oz ai/ac (133 ml ai/ha)), Basis® at twice the field label rate (0.5 oz ai/ac (36.9 ml ai/ha)) and WeatherMax® at four times the field label rate (43 oz ai/ac). Fourteen days after the treatment application, the plants were evaluated. […] “Field label rate” refers to the application rate specified on the product label. Where the application rate for a particular situation is a range of rates, as used herein, the term “field label rate” indicates the upper end of that range. […]

[2] = system: parent elite stiff stalk inbred corn; assay: Postemergence effect of ALS herbicides, glyphosate and glufosinate (fresh weight, visual injury); details: 200 g/ha (glyphosate 3472 g ae/ha, glufosinate ammonium 1870 g/ha), mean of four replications; for % Visual Injury Parent elite stiff stalk inbred: 2 weeks after treatment, 0% no injury, 100% plant death; for Fresh Weight (g) Parent elite stiff stalk inbred: applied two weeks after planting, fresh shoots 2 weeks after treatment, untreated 76.4 g
[3] = system: control maize; assay: Postemergence herbicide spray at V2, injury evaluated 10-14 days after application; type: in vivo; details: tribenuron, chlorimuron, imazapyr 200 g ai/ha, metsulfuron-methyl 0.5 oz ai/ac or 35 g ai/ha, 10-14 days after spray
[4] = system: heterozygous GAT-HRA corn; assay: Postemergence effect of ALS herbicides, glyphosate and glufosinate (fresh weight, visual injury); details: 200 g/ha (glyphosate 3472 g ae/ha, glufosinate ammonium 1870 g/ha), mean of four replications; for % Visual Injury Heterozygous GAT-HRA: 2 weeks after treatment, 0% no injury, 100% plant death; for Fresh Weight (g) Heterozygous GAT-HRA: applied two weeks after planting, fresh shoots 2 weeks after treatment, untreated 98.8 g
[5] = system: heterozygous GAT-HRA corn; assay: Preemergence effect of ALS herbicides (fresh weight, visual injury); details: 200 g/ha, mean of four replications; for % Visual Injury Heterozygous GAT-HRA: 4 weeks after treatment, 0% no injury, 100% plant death; for Fresh Weight (g) Heterozygous GAT-HRA: fresh shoots 4 weeks after treatment, untreated 47.0 g
[6] = system: parent elite stiff stalk inbred corn; assay: as above; details: 200 g/ha, mean of four replications; for % Visual Injury Patent elite stiff stalk inbred: 4 weeks after treatment, 0% no injury, 100% plant death; for Fresh Weight (g) patent elite stiff stalk inbred: fresh shoots 4 weeks after treatment, untreated 36.7 g
[7] = system: non-glyphosate resistant Conyza (Welgevallen-paraquat resistant); assay: Control of hairy fleabane by glyphosate, metsulfuron-methyl and two additives (Table 24); type: in vivo, Conyza bonariensis
Protocol: This example included the same treatments as used in Example 11, except the treatments were carried out on a glyphosate sensitive biotype of Kleinskraalhans (Conyza bonariensis).
• Biotype: Non-glyphosate resistant Conyza (Welgevallen-paraquat resistant) • Growth Stage: 10-15 leaf stage • Conditions: Cool and sunny • Volume rate: 200 L ha^−1 • glyphosate (ROUNDUP): 360 g a.i. L^−1

[8] = system: non-glyphosate resistant ryegrass (70-04); assay: Control of ryegrass by glyphosate, metsulfuron-methyl and two additives (Table 23); type: in vivo
Protocol: The example was conducted on non-glyphosate resistant ryegrass. As provided in Table 23, all treatments that included glyphosate [180 g a.i. L ha^−1 (0.5 L glyphosate (SCAT®))] plus metsulfuron-methyl (BRUSH-OFF®) (5 and 10 g ha^−1) gave 100% control of the ryegrass.
• Biotype: non-glyphosate resistant ryegrass (70-04) • Population profile: Rup 0.25 control (%) 6.25 • Rup 0.5 control (%) 81.25 • Rup 1.0 control (%) 93.75 • Growth Stage: 5-6 leaf stage • Conditions: hot and sunny • Volume rate: 200 L ha^−1

[9] = system: untransformed Coker 312 cotton; assay: Greenhouse over the top herbicide spray of cotton; type: in vivo, Gossypium hirsutum; details: rimsulfuron 16 g active ingredient/hectare, even in the absence of glyphosate
Text: (§1) Transformed cotton plants were rooted and then transferred to soil for further growth. Plants were then subjected to herbicide spray treatments in a greenhouse. […] Untransformed Coker 312 control plants were dead 2 weeks after glyphosate application. […] Plants transformed with both GAT and HRA were further subjected to an “over the top” application of the sulfonylurea herbicide rimsulfuron at a rate of 16 g active ingredient/hectare. […] In further experiments 32 g ai/ha rimsulfuron were applied to the cotton.

[10] = system: GAT-HRA transgenic cotton plants; assay: Greenhouse over the top herbicide spray of cotton; type: in vivo, Gossypium hirsutum; details: rimsulfuron 16 g active ingredient/hectare over the top after glyphosate 1.5 lb ae/acre; 14 days after rimsulfuron, 28 days after glyphosate
Text: as §1

[11] = system: non-transgenic control soybeans; assay: Postemergence greenhouse spray of soybeans, visual injury (Table 11); details: tribenuron-methyl 35 g/ha
Protocol: Young regenerated transgenic plants were sprayed with 1× glyphosate (1× rate of glyphosate is 1120 g/ha of glyphosate isopropylamine) to cull segregants. Four replications were performed for each treatment. Plants were then treated with various herbicides, including glyphosate and ALS-inhibitor herbicides.
Six soybean seeds from each variety to be assayed were planted 1 cm deep in 5.5 (13.97 cm) inch square plastic container of a synthetic growth medium. […] When possible, containers were thinned to two uniform plants. Non-transgenic lines were thinned to two uniform plants per container.
Results are expressed below in Table 11 as the mean of four replications.

[12] = Trial 2: metsulfuron-methyl (BRUSH-OFF) 5 g/ha
[13] = Trial 3: metsulfuron-methyl (BRUSH-OFF) 10 g/ha

Question: With `CCOC(=O)c1ccccc1S(=O)(=O)NC(=O)Nc1nc(Cl)cc(OC)n1` [Chlorimuron-ethyl, ethyl 2-[[[[(4-chloro-6-methoxy-2-pyrimidinyl)amino]carbonyl]amino]sulfonyl]-benzoate] as the compound, how does the “damage from the treatment, GAT-HRA maize” value ([1]; postemergence spray at V2, tribenuron (Express), chlorimuron (Classic), imazapyr (Arsenal) 200 g ai/ha, metsulfuron-methyl (Ally) 0.5 oz ai/ac or 35 g ai/ha, 10-14 days after spray) read?
Answer: no significant damage

Question: And the “% Visual Injury Parent elite stiff stalk inbred” value [2]?
Answer: 93%

Question: What about the “Fresh Weight (g) Parent elite stiff stalk inbred” value [2] of the same compound?
Answer: 10.1 g

Question: What about the “damage from the treatment, control maize” value [3] of the same compound?
Answer: severely damaged or killed

Question: What about the “% Visual Injury Heterozygous GAT-HRA” value [4] of the same compound?
Answer: 15%

Question: What about the “Fresh Weight (g) Heterozygous GAT-HRA” value [4] of the same compound?
Answer: 95.5 g

Question: And the “% Visual Injury Heterozygous GAT-HRA” value [5]?
Answer: 10%

Question: What about the “Fresh Weight (g) Heterozygous GAT-HRA” value [5] of the same compound?
Answer: 39.4 g

Question: And the “% Visual Injury Patent elite stiff stalk inbred” value [6]?
Answer: 100%

Question: What about the “Fresh Weight (g) patent elite stiff stalk inbred” value [6] of the same compound?
Answer: 9.3 g

Question: Which results are given for `CC(C)C1(C)N=C(c2ncccc2C(=O)O)NC1=O` (stereo not shown) [Imazapyr]?
Answer: damage from the treatment, GAT-HRA maize ([1]; in vivo): no significant damage; % Visual Injury Parent elite stiff stalk inbred [2]: 100%; damage from the treatment, control maize [3]: severely damaged or killed; % Visual Injury Heterozygous GAT-HRA [4]: 1%; % Visual Injury Heterozygous GAT-HRA [5]: 30%; % Visual Injury Patent elite stiff stalk inbred [6]: 99%

Question: For `COC(=O)c1ccccc1S(=O)(=O)NC(=O)Nc1nc(C)nc(OC)n1` [Metsulfuron-methyl (BRUSH-OFF ®)], which “Control (%)” value [7, 12] is on record?
Answer: 100%

Question: And the “Control (%)” value [7, 13]?
Answer: 100%

Question: What about the “Control (%)” value [8, 12] of the same compound?
Answer: 0%

Question: What about the “Control (%)” value [8, 13] of the same compound?
Answer: 0%

Question: Which results are given for `COC(=O)c1ccccc1S(=O)(=O)NC(=O)Nc1nc(C)nc(OC)n1` [Metsulfuron-methyl, methyl 2-[[[[(4-methoxy-6-methyl-1,3,5-triazin-2-yl)amino]carbonyl]amino]sulfonyl]benzoate]?
Answer: damage from the treatment, GAT-HRA maize ([1]; in vivo): no significant damage; % Visual Injury Parent elite stiff stalk inbred [2]: 100%; damage from the treatment, control maize [3]: severely damaged or killed; % Visual Injury Heterozygous GAT-HRA [4]: 14%; % Visual Injury Heterozygous GAT-HRA [5]: 0%; % Visual Injury Patent elite stiff stalk inbred [6]: 100%

Question: `CCS(=O)(=O)c1cccnc1S(=O)(=O)NC(=O)Nc1nc(OC)cc(OC)n1` [Rimsulfuron, N-[[(4,6-dimethoxy-2-pyrimidinyl)amino]carbonyl]-3-(ethylsulfonyl)-2-pyridinesulfonamide] was tested. Which “% Visual Injury Parent elite stiff stalk inbred” value [2] did it give?
Answer: 91%

Question: And the “% Visual Injury Heterozygous GAT-HRA” value [4]?
Answer: 10%

Question: What about the “% Visual Injury Heterozygous GAT-HRA” value [5] of the same compound?
Answer: 0%

Question: What about the “damage of untransformed Coker 312 plants” value [9] of the same compound?
Answer: severe damage

Question: What about the “transgenic plants with no deleterious symptoms from the dual herbicide application” value [10] of the same compound?
Answer: approximately 35%

Question: What about the “% Visual Injury Patent elite stiff stalk inbred” value [6] of the same compound?
Answer: 74%

Question: With `COC(=O)c1ccccc1S(=O)(=O)NC(=O)N(C)c1nc(C)nc(OC)n1` [Tribenuron-methyl, methyl 2-[[[[N-(4-methoxy-6-methyl-1,3,5-triazin-2-yl)-N-methylamino]carbonyl]-amino]sulfonyl]benzoate] as the compound, how does the “% Visual Injury Parent elite stiff stalk inbred” value [2] read?
Answer: 100%

Question: What about the “effect on non-transgenic control soybeans” value [11] of the same compound?
Answer: killed by the treatment

Question: And the “% Visual Injury Heterozygous GAT-HRA” value [4]?
Answer: 8%

Question: And the “% Visual Injury Heterozygous GAT-HRA” value [5]?
Answer: 25%

Question: And the “% Visual Injury Patent elite stiff stalk inbred” value [6]?
Answer: 66%

Question: For `COc1cc(OC)nc(NC(=O)NS(=O)(=O)c2ncccc2OCC(F)(F)F)n1` [Trifloxysulfuron Na^+, N-[[(4,6-dimethoxy-2-pyrimidinyl)amino]-carbonyl]-3-(2,2,2-trifluoroethoxy)-2-pyridinesulfonamide], which “% Visual Injury Parent elite stiff stalk inbred” value [2] is on record?
Answer: 100%

Question: And the “Fresh Weight (g) Parent elite stiff stalk inbred” value [2]?
Answer: 1.0 g

Question: And the “% Visual Injury Heterozygous GAT-HRA” value [4]?
Answer: 29%

Question: And the “Fresh Weight (g) Heterozygous GAT-HRA” value [4]?
Answer: 86.6 g

Question: What about the “% Visual Injury Heterozygous GAT-HRA” value [5] of the same compound?
Answer: 0%

Question: What about the “Fresh Weight (g) Heterozygous GAT-HRA” value [5] of the same compound?
Answer: 50.8 g

Question: What about the “% Visual Injury Patent elite stiff stalk inbred” value [6] of the same compound?
Answer: 100%

Question: And the “Fresh Weight (g) patent elite stiff stalk inbred” value [6]?
Answer: 0.0 g

Question: What does the source list for `COC(=O)c1cccc(C)c1S(=O)(=O)NC(=O)Nc1nc(OCC(F)(F)F)nc(N(C)C)n1` [Triflusulfuron-methyl]?
Answer: % Visual Injury Parent elite stiff stalk inbred [2]: 100%; Fresh Weight (g) Parent elite stiff stalk inbred [2]: 2.1 g; % Visual Injury Heterozygous GAT-HRA [4]: 8%; Fresh Weight (g) Heterozygous GAT-HRA [4]: 110.9 g; % Visual Injury Heterozygous GAT-HRA [5]: 5%; Fresh Weight (g) Heterozygous GAT-HRA [5]: 53.5 g; % Visual Injury Patent elite stiff stalk inbred [6]: 100%; Fresh Weight (g) patent elite stiff stalk inbred [6]: 26.3 g

Question: What does the source list for Imazamethabenz-methyl?
Answer: % Visual Injury Parent elite stiff stalk inbred [2]: 11%; Fresh Weight (g) Parent elite stiff stalk inbred [2]: 66.9 g; % Visual Injury Heterozygous GAT-HRA [4]: 16%; Fresh Weight (g) Heterozygous GAT-HRA [4]: 95.0 g; % Visual Injury Heterozygous GAT-HRA [5]: 15%; Fresh Weight (g) Heterozygous GAT-HRA [5]: 48.5 g; % Visual Injury Patent elite stiff stalk inbred [6]: 61%; Fresh Weight (g) patent elite stiff stalk inbred [6]: 36.2 g
